“And” between values parts separate entries of the source, which are not always exact repeats. Equal entries are not always repeated.
Assay: Fecal excretion and metabolite profile by radiochromatography, rats
Type: in vivo, Sprague Dawley rats
Settings: for % of the radioactive dose excreted in feces: rats
Protocol: Urine and feces were collected separately on dry ice from three animals per sex. Collections were from 0-8 and 8-24 hours for male rats and 0-8 hours for female rats. Fecal samples were homogenized in approximately five volumes (v/w) of water. Aliquots of approximately 0.4 grams of the homogenate were placed into combusto-cones, weighed and allowed to air dry. These samples were then oxidized. The remaining urine samples and fecal homogenates were stored at −70° C. until metabolite analysis.
Fecal homogenates collected from male rats between 8 and 24 hours post-dose were analyzed for metabolite profiles. Aliquots of approximately 1 gram of fecal homogenate were centrifuged at 3500 rpm and 4° C. in a Sorvall Super 21 centrifuge for 10 minutes. The supernatant was transferred to a clean tube. The residue was re-suspended with 1 mL of water:acetonitrile (1:1, v:v) and centrifuged as described above. The resulting supernatant was combined with the original supernatant and the residue re-suspended with 1 mL of acetonitrile. The suspension was centrifuged as described above, and the supernatants were combined and analyzed for radioactivity. The supernatants were then concentrated under a stream of nitrogen in a Turbo Vap to remove the acetonitrile. An aliquot of the aqueous residue was analyzed by HPLC for profiling. Selected samples were also analyzed by LC/MS to characterize the radioactive peaks.
Chromatographic analyses were performed with a Waters Alliance model 2690 HPLC system (Waters Corp., Milford, Mass.). It was equipped with a built-in autosampler and was in-line with a model 2487 tunable UV detector, set to monitor 225 nm, and a FloOne β Model 525 radioactivity flow detector (Perkin Elmer) with a 250 μL LQTR flow cell. The flow rate of Ultima Flow M scintillation fluid was 1 mL/min, providing a mixing ratio of scintillation cocktail to mobile phase of 5:1. Separation of the metabolite peaks was accomplished on a Phenomenex Luna C18(2) column, 150×2.0 mm, 5 micron (Phenomenex, Torrance, Calif.), using a linear gradient of two mobile phases, A and B. Mobile phase A was 10 mM ammonium acetate, pH 6.0, and mobile phase B was acetonitrile. The flow rate was 0.2 mL/min.

CN(C)CC(c1ccc(O)cc1)C1(O)CCCCC1.O=C(O)CCC(=O)O (centres unmarked) [DVS, O-desmethylvenlafaxine succinate]
Radioactivity as % of Dose in feces, Mean ± S.D. (male rats, feces 8-24 hours post-dose, single oral 20 mg/kg): 9.6 ± 1.1%
Compounds Detected by Radiochromatography in feces, percent of total peaks, individual rats (male rats, feces 8-24 hours post-dose, single oral 20 mg/kg, 20 mg/kg): 19.6% and 20.8% and 22.0%
Radioactivity as % of Dose in feces, individual rats (male rats, feces 8-24 hours post-dose, single oral 20 mg/kg, listed as [^14C]DVS, 20 mg/kg): 10.8% and 9.5% and 8.5^b %
% of the radioactive dose excreted in feces (0-8 hour fecal samples): Less than 0.1%
% of the radioactive dose excreted in feces (within 24 hours of dosing): approximately 10%
